Experimental findings from ChEMBL document CHEMBL1126915, “Solvent-dependent conformation and hydrogen-bonding capacity of cyclosporin A: evidence from partition coefficients and molecular dynamics simulations” (J Med Chem, 1993) are described below.

Conditions in all cases: octanol/water
The nature of data set [1]: Partition coefficient of compound was measured in heptane/water system.
Data set [2] can be described thus: physchem.
Description: Partition coefficient (logP)
A short description of data set [3]: physchem. The source holds these as a separate data set.
Description: Partition coefficient (logP)

For `NC(=O)c1ccc(F)cc1`, the “Log Phep” value in data set [1] is recorded as -2.34. For the same compound, the results for the logP in “physchem [2]” and in “physchem [3]” were 1 and 0.96, respectively.
Consider `O=C1N[C@@H](Cc2ccccc2)C(=O)N[C@H]1Cc1ccccc1`, for which the Log Phep in data set [1] is less than -3. In addition, the figures for the logP in “physchem [2]” and in the data set “physchem [3]” were 2.86 and 1.59, respectively.
In the case of `NC(=O)c1ccccc1` [BENZAMIDE], the “Log Phep” value in data set [1] is -2.45.
Take `O=[N+]([O-])c1ccc(O)cc1` [P-NITROPHENOL]: the “Log Phep” value in data set [1] is -2.11. Also, the logP worked out at 1.85 in “physchem [2]” and 1.77 in “physchem [3]”.
For `CC(=O)Nc1ccc(F)cc1`, the “Log Phep” value in data set [1] is -1.57. Moreover, the logP in “physchem [2]” is 1.61; in “physchem [3]”, 1.47.
`O=[N+]([O-])c1ccccc1O` [NITROPHENOLATE]: in data set [1], the “Log Phep” value is given as 1.04. Also, the logP was found to be 1.85 in “physchem [2]” and 1.68 in the data set “physchem [3]”.
Take `O=C1N[C@H](Cc2ccc(O)cc2)C(=O)N[C@H]1Cc1c[nH]c2ccccc12`: in data set [1], the Log Phep is less than -3. Moreover, the logP in the data set “physchem [2]” stood at 2.19; in the data set “physchem [3]”, 1.05.
`CC(=O)Nc1ccccc1` [ACETANILIDE]: in data set [1], the “Log Phep” value is -1.54.
Consider `CC(=O)Nc1ccccc1F`, for which the “Log Phep” value in data set [1] is given as -0.69. Also, the logP in “physchem [2]” and in “physchem [3]” was 0.96 throughout.
On to `NC(=O)c1ccccc1F`, for which the “Log Phep” value in data set [1] is -1.47. The logP in the data set “physchem [2]” turned out to be 0.5; in the data set “physchem [3]”, 0.64.
On to `Oc1ccccc1` [PHENOL], for which the “Log Phep” value in data set [1] is -0.82.
